Values of other authors as cited in PubChem BioAssay AID1259410 (Chemical Carcinogenesis Research Information System (CCRIS), 2018).

System: rodent tumor promotion studies, tumor incidence
Assay: CCRIS tumor promotion studies
Conditions: Carcinogen: 7,12-DIMETHYLBENZ[A]ANTHRACENE, 57-97-6, Route [Carcinogen]: DERMAL, Route [Promoter]: DERMAL, Species: MOUSE

SMILES | outcome (Doses [Carcinogen]: 25 NMOL IN 0.2 ML ACETONE ONCE, Doses [Promoter]: 440, 880, 1760 NMOL/MOUSE 1/WK FOR 40 WK BEGINNING 2 WK POST CARCINOGEN DOSE (STUDY DURATION: 42 WK), Doses [Promoter]: 440, 880, 1760 NMOL/MOUSE 1/WK FOR 40 WK BEGINNING 2 WK POST CARCINOGEN DOSE (STUDY DURATION: 42 WK), Strain/Sex: SENCAR/FEMALE) | outcome (Doses [Carcinogen]: 25 NMOL IN 0.2 ML ACETONE ONCE, Doses [Promoter]: 1760 NMOL/MOUSE 2/WK FOR 40 WK BEGINNING 2 WK POST CARCINOGEN DOSE (STUDY DURATION: 42 WK), Strain/Sex: SENCAR/FEMALE) | outcome (Doses [Carcinogen]: 25 NMOL IN 0.2 ML ACETONE ONCE, Doses [Promoter]: 1760 NMOL/MOUSE 3/WK FOR 40 WK BEGINNING 2 WK POST CARCINOGEN DOSE (STUDY DURATION: 42 WK), Strain/Sex: SENCAR/FEMALE) | outcome (Doses [Carcinogen]: 25 NMOL IN 0.2 ML ACETONE ONCE, Doses [Promoter]: 1760 NMOL/MOUSE 3/WK FOR 60 WK BEGINNING 2 WK POST CARCINOGEN DOSE (STUDY DURATION: 60 WK), Strain/Sex: SENCAR/FEMALE) | outcome (Doses [Carcinogen]: 100 UG IN 0.1 ML OF ACETONE ONCE, Doses [Promoter]: 0, 5 UG IN 0.1 ML OF ACETONE 2/WK FOR 30 WK BEGINNING 1 WK POST CARCINOGEN DOSE (STUDY DURATION: 31 WK), Strain/Sex: CD-1/FEMALE)
O=C1C=CC(=O)c2c(O)cccc21 | skin: papilloma | skin: papilloma | skin: papilloma | skin: carcinoma | –
C=C1C(O)C2OC3(CCC(/C=C/C(C)C4CC(C)=CC5(OC(CC(C)(O)C(=O)O)CCC5O)O4)O3)CCC2OC1C(O)CC(C)C1OC2(CCC1C)OCCCC2C (stereo not given) | – | – | – | – | skin: tumor
